In ChEMBL document CHEMBL1143656, “A novel series of potent gamma-secretase inhibitors based on a benzobicyclo[4.2.1]nonane core” (Bioorg Med Chem Lett, 2005):

test system: Mus musculus; assay: Concentration of […] beta40 in plasma of transgenic APP-YAC mice 4 hr after 100 mg/kg peroral dose; assay type: functional, organism-based; parameters: dose 100 mg/kg; conditions: not given

| Compound | Plasma concentration [µM] |
| --- | --- |
| O=S(=O)(NC1C2CCC1Cc1cc(/C=C/CN3CCOCC3)ccc1C2)c1ccc(Cl)s1 (stereo in doubt; form 1) [listing 1 of 2 here] | > 7.91 |

test system: Mus musculus; assay: Reduction of […] beta-40 in transgenic APP-YAC mice 4 hr after 100 mg/kg peroral dose; assay type: functional; conditions: route oral

| Compound | Reduction [%] |
| --- | --- |
| O=S(=O)(NC1C2CCC1Cc1cc(/C=C/CN3CCOCC3)ccc1C2)c1ccc(Cl)s1 (stereo in doubt; form 1) [listing 2 of 2 here] | 50 |

test system: Mus musculus; assay: Concentration of […] beta40 in brain of transgenic APP-YAC mice 4 hr after 100 mg/kg peroral dose; assay type: functional; conditions: route oral

| Compound | Brain concentration [µM] |
| --- | --- |
| O=S(=O)(NC1C2CCC1Cc1cc(/C=C/CN3CCOCC3)ccc1C2)c1ccc(Cl)s1 (stereo in doubt; form 1) [listing 2 of 2 here] | 16.7 |

biological target: Gamma-secretase; assay: Inhibitory concentration against Gamma-secretase in whole cell inhibition assay using SH-SY5Y cells; assay type: functional, cell-based, Homo sapiens; conditions: not given

| IC50 [nM] | Compound |
| --- | --- |
| 70 | O=S(=O)(NC1C2CCC1Cc1cc(F)ccc1C2)c1ccccc1 (stereo not given) |
| 39 | CN1CCN(C/C=C/c2ccc3c(c2)CC2CCC(C3)C2NS(=O)(=O)c2ccc(Cl)s2)CC1 (stereo not given) |
| 3490 | O=C(CNCc1ccccc1)Nc1ccc2c(c1)CC1CCC(C2)C1NS(=O)(=O)c1ccc(Cl)s1 (stereo not given) |
| 315 | O=S(=O)(NC1C2CCC1Cc1cc(/C=C/CN3CCOCC3)ccc1C2)c1ccc(Cl)s1 (stereo in doubt; form 2) |
| 190 | O=S(=O)(NC1C2CCC1Cc1ccccc1C2)c1ccccc1 (stereo not given) |
| 7 | O=C(CN1CCCC1)Nc1ccc2c(c1)CC1CCC(C2)C1NS(=O)(=O)c1ccc(Cl)s1 (stereo not given) |
| > 1000 | CCCCCC(=O)Nc1ccc2c(c1)CC1CCC(C2)C1NS(=O)(=O)c1ccccc1 (stereo not given) |
| 21 | O=S(=O)(NC1C2CCC1Cc1cc(/C=C/CN3CCN(c4ccccc4)CC3)ccc1C2)c1ccc(Cl)s1 (stereo not given) |
| > 1000 | CC(=O)Nc1ccc2c(c1)CC1CCC(C2)C1NS(=O)(=O)c1ccccc1 (stereo not given) |
| > 1000 | O=C(Nc1ccc2c(c1)CC1CCC(C2)C1NS(=O)(=O)c1ccccc1)c1ccncc1 (stereo not given) |
| > 1000 | CCCCCS(=O)(=O)NC1C2CCC1Cc1ccccc1C2 (stereo not given) |
| 324 | O=S(=O)(NC1C2CCC1Cc1ccccc1C2)c1cccc(F)c1 (stereo not given) |
| > 1000 | O=S(=O)(NC1C2CCC1Cc1ccccc1C2)c1cc(Cl)c(Cl)s1 (stereo not given) |
| 152 | O=S(=O)(NC1C2CCC1Cc1cc(/C=C/CN3CCCCC3)ccc1C2)c1ccc(Cl)s1 (stereo not given) |
| 226 | CN(CC(=O)Nc1ccc2c(c1)CC1CCC(C2)C1NS(=O)(=O)c1ccc(Cl)s1)Cc1ccccc1 (stereo not given) |
| 6 | O=C(CN1CCCCC1)Nc1ccc2c(c1)CC1CCC(C2)C1NS(=O)(=O)c1ccc(Cl)s1 (stereo not given) |
| 623 | O=S(=O)(NC1C2CCC1Cc1cc(OCCN3CCC(O)CC3)ccc1C2)c1ccc(Cl)s1 (stereo not given) |
| 153 | O=C(Nc1ccc2c(c1)CC1CCC(C2)C1NS(=O)(=O)c1ccccc1)OCc1ccccc1Cl (stereo not given) |
| 73 | O=S(=O)(NC1C2CCC1Cc1cc(OCCN3CCCCC3)ccc1C2)c1ccc(Cl)s1 (stereo not given) |
| > 1000 | COCC(=O)Nc1ccc2c(c1)CC1CCC(C2)C1NS(=O)(=O)c1ccccc1 (stereo not given) |
| > 1000 | CCc1ccc(S(=O)(=O)NC2C3CCC2Cc2ccccc2C3)cc1 (stereo not given) |

| IC50 [nM] | Compound |
| --- | --- |
| 412 | O=C(Nc1ccc2c(c1)CC1CCC(C2)C1NS(=O)(=O)c1ccccc1)OCc1cccc(Cl)c1 (stereo not given) |
| 227 | CC1CCCCN1CCOc1ccc2c(c1)CC1CCC(C2)C1NS(=O)(=O)c1ccc(Cl)s1 (stereo not given) |
| 335 | CC1CCCN1CCOc1ccc2c(c1)CC1CCC(C2)C1NS(=O)(=O)c1ccc(Cl)s1 (stereo not given) |
| > 1000 | CCS(=O)(=O)NC1C2CCC1Cc1ccccc1C2 (stereo not given) |
| 651 | Cc1ccc(S(=O)(=O)NC2C3CCC2Cc2ccccc2C3)cc1 (stereo not given) |
| 5 | O=C(CN1CCN(c2ccccc2)CC1)Nc1ccc2c(c1)CC1CCC(C2)C1NS(=O)(=O)c1ccc(Cl)s1 (stereo not given) |
| 129 | O=S(=O)(NC1C2CCC1Cc1ccccc1C2)c1ccc(F)cc1 (stereo not given) |
| 34 | O=S(=O)(NC1C2CCC1Cc1c(F)cccc1C2)c1ccc(Cl)s1 (stereo not given) |
| 721 | CCCS(=O)(=O)NC1C2CCC1Cc1ccccc1C2 (stereo not given) |
| 610 | CCCCS(=O)(=O)NC1C2CCC1Cc1ccccc1C2 (stereo not given) |
| 16 | O=C(Nc1ccc2c(c1)CC1CCC(C2)C1NS(=O)(=O)c1ccccc1)OCc1ccc(Cl)cc1 (stereo not given) |
| > 1000 | O=C(Nc1ccc2c(c1)CC1CCC(C2)C1NS(=O)(=O)c1ccccc1)c1cccnc1 (stereo not given) |
| 5 | O=S(=O)(NC1C2CCC1Cc1cc(OCCN3CCOCC3)ccc1C2)c1ccc(Cl)s1 (stereo not given) |
| 75 | O=C(Nc1ccc2c(c1)CC1CCC(C2)C1NS(=O)(=O)c1ccccc1)c1ccccn1 (stereo not given) |
| 41 | CCN(CC)CC(=O)Nc1ccc2c(c1)CC1CCC(C2)C1NS(=O)(=O)c1ccc(Cl)s1 (stereo not given) |
| 74 | O=C(Nc1ccc2c(c1)CC1CCC(C2)C1NS(=O)(=O)c1ccccc1)OCc1ccccc1 (stereo not given) |
| 209 | O=S(=O)(NC1C2CCC1Cc1cc(OCCN3CCC(O)C3)ccc1C2)c1ccc(Cl)s1 (stereo not given) |
| 535 | CC(C)CCCC(=O)Nc1ccc2c(c1)CC1CCC(C2)C1NS(=O)(=O)c1ccccc1 (stereo not given) |
| 490 | COc1ccc2c(c1)CC1CCC(C2)C1NS(=O)(=O)c1ccc(Cl)s1 (stereo not given) |
| 69 | CN1CCN(CC(=O)Nc2ccc3c(c2)CC2CCC(C3)C2NS(=O)(=O)c2ccc(Cl)s2)CC1 (stereo not given) |
| > 1000 | O=S(=O)(NC1C2CCC1Cc1ccccc1C2)c1ccc(C(F)(F)F)cc1 (stereo not given) |

| IC50 [nM] | Compound |
| --- | --- |
| > 1000 | O=[N+]([O-])c1ccc(S(=O)(=O)NC2C3CCC2Cc2ccccc2C3)cc1 (stereo not given) |
| 269 | O=S(=O)(NC1C2CCC1Cc1cc(O)ccc1C2)c1ccc(Cl)s1 (stereo not given) |
| 12 | O=C(Nc1ccc2c(c1)CC1CCC(C2)C1NS(=O)(=O)c1ccc(Cl)s1)c1ccccn1 (stereo not given) |
| 23 | O=C(Nc1ccc2c(c1)CC1CCC(C2)C1NS(=O)(=O)c1ccc(Cl)s1)OCc1ccccc1 (stereo not given) |
| 146 | O=S(=O)(NC1C2CCC1Cc1cc(Cl)ccc1C2)c1ccc(Cl)s1 (stereo not given) |
| 7 | O=C(CN1CCOCC1)Nc1ccc2c(c1)CC1CCC(C2)C1NS(=O)(=O)c1ccc(Cl)s1 (stereo not given) |
| 1 | O=S(=O)(NC1C2CCC1Cc1cc(/C=C/CN3CCOCC3)ccc1C2)c1ccc(Cl)s1 (stereo in doubt; form 1) [listing 2 of 2 here] |
| 62 | O=S(=O)(NC1C2CCC1Cc1ccccc1C2)c1ccc(Cl)s1 (stereo not given) |
| 239 | O=S(=O)(NC1C2CCC1Cc1ccccc1C2)c1ccccc1F (stereo not given) |
| 467 | O=S(=O)(NC1C2CCC1Cc1ccccc1C2)c1ccc(Cl)cc1 (stereo not given) |
| 50 | O=S(=O)(NC1C2CCC1Cc1ccccc1C2)c1cccs1 (stereo not given) |
| 15 | O=S(=O)(NC1C2CCC1Cc1cc(/C=C/Cn3ccnc3)ccc1C2)c1ccc(Cl)s1 (stereo not given) |
| 29 | O=S(=O)(NC1C2CCC1Cc1cc(F)ccc1C2)c1ccc(Cl)s1 (stereo not given) |
| > 1000 | O=C(CCc1ccccc1)Nc1ccc2c(c1)CC1CCC(C2)C1NS(=O)(=O)c1ccccc1 (stereo not given) |
| > 1000 | O=C(Nc1ccc2c(c1)CC1CCC(C2)C1NS(=O)(=O)c1ccccc1)c1ccccc1 (stereo not given) |
| 175 | O=S(=O)(NC1C2CCC1Cc1c(Cl)cccc1C2)c1ccc(Cl)s1 (stereo not given) |
| 6000 | Nc1ccc2c(c1)CC1CCC(C2)C1NS(=O)(=O)c1ccccc1 (stereo not given) |
| > 1000 | Cc1cccc(S(=O)(=O)NC2C3CCC2Cc2ccccc2C3)c1 (stereo not given) |
| 5 | O=S(=O)(NC1C2CCC1Cc1cc(/C=C/CN3CCOCC3)ccc1C2)c1ccc(Cl)s1 (racemic) |
| > 1000 | CC(C)(C)c1ccc(S(=O)(=O)NC2C3CCC2Cc2ccccc2C3)cc1 (stereo not given) |
